The source made the active and inactive calls.
What was measured:
[1] = molecular target: Adenosylmethionine-8-amino-7-oxononanoate aminotransferase (Mycobacterium tuberculosis, UniProt P9WQ81); experiment: Mycobacterium tuberculosis BioA enzyme inhibitor Measured in Biochemical System Using Plate Reader - 2163-02_Inhibitor_Dose_CherryPick_Activity.; format: functional, Mycobacterium tuberculosis UT205
[2] = non-specific 3'UTR reporter inhibition in Clone20-Shn3RL – cell-based, Renilla luciferase, cherry-picked, counter-screen for Shn3 inhibitor project, dose response (AID 624133); format: functional
Protein Wnt-3a = Protein Wnt-3a (Mus musculus, UniProt P27467); experiment: antagonism of Wnt3a pathway luciferase reporter – Wnt-LIGHT cells, luminescence, selectivity assay for Gli-SUFU antagonist project, dose response (AID 651570); format: functional; details: read-out: IC50_Mean;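 further: Wnt-LIGHT reporter cells stimulated with conditioned medium from Wnt3a-producing cells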
Protein Wnt-3a, sequence (P27467 whole entry): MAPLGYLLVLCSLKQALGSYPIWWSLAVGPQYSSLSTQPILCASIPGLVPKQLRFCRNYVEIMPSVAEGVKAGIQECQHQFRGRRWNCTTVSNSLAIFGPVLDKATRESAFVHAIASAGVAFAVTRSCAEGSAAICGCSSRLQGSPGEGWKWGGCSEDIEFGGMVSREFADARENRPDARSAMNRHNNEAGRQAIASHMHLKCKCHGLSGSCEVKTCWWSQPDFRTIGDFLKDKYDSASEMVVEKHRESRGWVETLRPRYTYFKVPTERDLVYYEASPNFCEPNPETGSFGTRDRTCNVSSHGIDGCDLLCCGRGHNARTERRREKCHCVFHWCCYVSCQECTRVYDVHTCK

[3] = reduction of Shn3 3'UTR-driven luciferase in osteoblasts – cell-based, Clone20 osteoblasts, firefly luciferase, cherry-picked, dose response (AID 624132); format: functional;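 further: firefly luciferase luminescence from reporter carrying the Shn3 3'UTR in osteoblasts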
[4] = loss of viability in HepG2 cells – cell-based, CellTiter-Glo, cherry-picked, cytotoxicity control for Shn3 inhibitor project, dose response (AID 624134); format: functional
Streptococcus = experiment: GAS UMAA2166 growth inhibition – luminescence, BacTiterGlo, counter-screen for streptokinase expression inhibitor project, dose response (AID 1915); format: functional, organism-based;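 further: potency for reduction of bacterial viability or growth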
[5] = test system: Streptococcus sp. 'group A'; experiment: Streptococcus pyogenes SK(-)GAS viability under kanamycin – luminescence, BacTiterGlo, confirmation, counter-screen for streptokinase expression inhibitor project, dose response (AID 1900); format: functional, organism-based
[6] = molecular target: T1, High affinity choline transporter 1 (Homo sapiens, UniProt Q9GZV3); experiment: human choline transporter blockers, potency – cell-based, 5-point CRC, membrane potential dye, dose response (AID 504840); format: functional
T1 sequence (Q9GZV3 whole entry): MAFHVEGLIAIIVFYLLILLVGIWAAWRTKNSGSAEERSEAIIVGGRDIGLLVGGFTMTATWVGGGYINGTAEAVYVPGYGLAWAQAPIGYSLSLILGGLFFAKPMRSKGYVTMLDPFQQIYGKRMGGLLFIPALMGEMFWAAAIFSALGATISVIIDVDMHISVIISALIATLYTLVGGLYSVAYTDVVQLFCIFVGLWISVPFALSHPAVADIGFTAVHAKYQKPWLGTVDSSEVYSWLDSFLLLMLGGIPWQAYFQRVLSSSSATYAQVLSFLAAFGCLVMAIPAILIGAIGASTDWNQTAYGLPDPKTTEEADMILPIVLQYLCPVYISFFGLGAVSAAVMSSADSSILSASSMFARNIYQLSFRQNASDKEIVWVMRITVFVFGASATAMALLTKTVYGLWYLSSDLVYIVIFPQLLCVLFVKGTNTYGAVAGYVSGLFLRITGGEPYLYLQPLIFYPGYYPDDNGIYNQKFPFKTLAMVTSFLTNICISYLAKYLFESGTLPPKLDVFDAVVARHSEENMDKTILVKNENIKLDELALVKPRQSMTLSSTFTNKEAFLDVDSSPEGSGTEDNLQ

[7] = molecular target: FAD-linked sulfhydryl oxidase ALR (Homo sapiens, UniProt P55789); experiment: ALR-catalysed DTT oxidation blockers – biochemical, H2O2 detection, luminescence, cherry-pick, dose response (AID 493248)
FAD-linked sulfhydryl oxidase ALR, sequence (P55789 whole entry): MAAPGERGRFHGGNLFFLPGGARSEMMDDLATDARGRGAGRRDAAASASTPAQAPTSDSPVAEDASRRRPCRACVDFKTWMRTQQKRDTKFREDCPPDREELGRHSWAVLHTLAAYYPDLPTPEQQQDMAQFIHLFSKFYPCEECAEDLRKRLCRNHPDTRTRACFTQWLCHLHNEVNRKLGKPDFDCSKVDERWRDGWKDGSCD

Streptokinase A = molecular target: T2, Streptokinase A (Streptococcus pyogenes serotype M1, UniProt P10520); experiment: viability-normalized secreted streptokinase activity reduction – plasminogen activation absorbance, OD405, dose response (AID 1914); format: functional, Streptococcus pyogenes M1 GAS;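 further: secreted streptokinase activity via plasminogen activation per viability signal from cell pellet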
T2 sequence (P10520 whole entry): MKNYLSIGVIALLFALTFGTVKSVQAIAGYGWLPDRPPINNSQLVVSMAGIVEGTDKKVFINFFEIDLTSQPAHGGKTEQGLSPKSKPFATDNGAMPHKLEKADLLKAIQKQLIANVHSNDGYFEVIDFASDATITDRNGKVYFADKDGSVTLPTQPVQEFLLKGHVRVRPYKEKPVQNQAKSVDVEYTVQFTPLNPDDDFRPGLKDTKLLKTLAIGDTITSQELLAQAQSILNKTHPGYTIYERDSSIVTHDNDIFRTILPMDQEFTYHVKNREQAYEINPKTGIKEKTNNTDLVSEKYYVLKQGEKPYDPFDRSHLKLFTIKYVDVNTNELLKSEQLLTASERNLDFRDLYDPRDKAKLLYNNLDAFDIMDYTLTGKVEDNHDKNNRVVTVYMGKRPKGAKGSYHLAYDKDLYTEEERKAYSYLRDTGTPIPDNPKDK

[8] = molecular target: T1, High affinity choline transporter 1; experiment: human choline transporter blockers, potency – cell-based, 10-point CRC, membrane potential dye, dose response (AID 588401); format: functional;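 further: membrane potential dye fluorescence of choline-evoked depolarization via CHT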
[9] = molecular target: T3, Orexin/Hypocretin receptor type 1 (Homo sapiens, UniProt O43613); experiment: Homogeneous Time Resolved Fluorescence (HTRF)-based cell-based high throughput dose response assay for antagonists of the orexin 1 receptor (OX1R; HCRTR1). [Related pubchem assays (depositor defined):AID434989, AID435008, AID463079, AID485270, AID492963, AID492964, AID492965, AID493232, AID504717, AID504718]; format: functional
T3 sequence (O43613 whole entry): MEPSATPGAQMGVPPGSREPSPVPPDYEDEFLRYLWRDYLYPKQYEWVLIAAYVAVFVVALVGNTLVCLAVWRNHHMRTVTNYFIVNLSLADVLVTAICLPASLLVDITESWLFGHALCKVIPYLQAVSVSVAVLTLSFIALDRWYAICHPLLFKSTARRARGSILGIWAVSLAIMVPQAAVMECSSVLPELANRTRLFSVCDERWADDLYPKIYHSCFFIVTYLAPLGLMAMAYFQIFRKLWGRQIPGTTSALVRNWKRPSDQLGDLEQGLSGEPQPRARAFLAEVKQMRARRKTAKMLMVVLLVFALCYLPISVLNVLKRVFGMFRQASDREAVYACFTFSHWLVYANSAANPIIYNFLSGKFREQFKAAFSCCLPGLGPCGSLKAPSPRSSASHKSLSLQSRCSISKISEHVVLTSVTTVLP

Orexin receptor type 2 [10] = molecular target: T4, Orexin receptor type 2 (Homo sapiens, UniProt O43614); experiment: Counterscreen assay for antagonists of the orexin 1 receptor (OX1R; HCRTR1): Homogeneous Time Resolved Fluorescence (HTRF)-based cell-based dose response assay for antagonists of the orexin 2 receptor (OX2R; HCRTR2), run by assay provider.; format: functional
T4 sequence (O43614 whole entry): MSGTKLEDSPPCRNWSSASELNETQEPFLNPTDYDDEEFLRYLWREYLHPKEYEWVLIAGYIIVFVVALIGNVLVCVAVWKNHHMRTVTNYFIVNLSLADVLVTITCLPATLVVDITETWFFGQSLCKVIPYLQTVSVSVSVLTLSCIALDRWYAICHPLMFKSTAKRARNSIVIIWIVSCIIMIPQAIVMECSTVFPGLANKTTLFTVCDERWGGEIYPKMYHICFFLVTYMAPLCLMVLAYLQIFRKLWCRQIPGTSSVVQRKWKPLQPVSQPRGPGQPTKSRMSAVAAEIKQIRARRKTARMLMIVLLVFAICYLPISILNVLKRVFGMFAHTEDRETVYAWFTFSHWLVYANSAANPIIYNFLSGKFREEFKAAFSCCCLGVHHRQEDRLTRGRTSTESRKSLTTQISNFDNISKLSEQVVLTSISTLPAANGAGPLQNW

CHO-K1 = experiment: (§1) Counterscreen for antagonists of the orexin 1 receptor (OX1R; HCRTR1): Homogeneous time resolved fluorescence (HTRF)-based cell-based dose response assay to identify antagonists of the parental CHO-K1 cell line. [Related pubchem assays (depositor defined):AID434989, AID435008, AID463079, AID485270, AID492963, AID492964, AID492965, AID493232, AID504699, AID504701]; format: functional; details: Cricetulus griseus
[11] = as §1, with “Fluorescence-based” for “Homogeneous time resolved fluorescence (HTRF)-based”, “cell-based high throughput” for “cell-based”, “CHO” for “CHO-K1”; format: functional
Orexin receptor type 2 [12] = molecular target: T4, Orexin receptor type 2; experiment: Counterscreen assay for antagonists of the orexin 1 receptor (OX1R; HCRTR1): Fluorescence-based cell-based dose response assay for antagonists of the orexin 2 receptor (OX2R; HCRTR2), run by assay provider.; format: functional
[13] = molecular target: T3, Orexin/Hypocretin receptor type 1; experiment: Fluorescence-based cell-based high throughput dose response assay for antagonists of the orexin 1 receptor (OX1R; HCRTR1). [Related pubchem assays (depositor defined):AID434989, AID435008, AID463079, AID485270, AID492963, AID492964, AID492965, AID493232, AID504717, AID504718]; format: functional
[14] = viability of uninfected HEp-2 cells – cell-based, HTS, cytotoxicity control for RSV inhibitor project, dose response (AID 2410); format: functional; details: human respiratory syncytial virus
H9c2 = experiment: cells; format: functional, cell-based; details: Rattus norvegicus, H9c2, Myocardium;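 further: confirmatory concentration-response retest of ultra-high-throughput screening hits for modulation of myocardial damage; cell death induced by hydrogen peroxide oxidative stress; compound pretreatment for 60 min then peroxide exposure for 2 h; potency is for protecting the cells against peroxide damage rather than for killing them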
[15] = molecular target: Potassium voltage-gated channel subfamily KQT member 2 (Rattus norvegicus, UniProt O88943); experiment: blockers of KCNQ2 channel current – cell-based, automated electrophysiology, set II, rat KCNQ2, dose response (AID 588637); format: functional
Potassium voltage-gated channel subfamily KQT member 2, sequence (O88943 whole entry): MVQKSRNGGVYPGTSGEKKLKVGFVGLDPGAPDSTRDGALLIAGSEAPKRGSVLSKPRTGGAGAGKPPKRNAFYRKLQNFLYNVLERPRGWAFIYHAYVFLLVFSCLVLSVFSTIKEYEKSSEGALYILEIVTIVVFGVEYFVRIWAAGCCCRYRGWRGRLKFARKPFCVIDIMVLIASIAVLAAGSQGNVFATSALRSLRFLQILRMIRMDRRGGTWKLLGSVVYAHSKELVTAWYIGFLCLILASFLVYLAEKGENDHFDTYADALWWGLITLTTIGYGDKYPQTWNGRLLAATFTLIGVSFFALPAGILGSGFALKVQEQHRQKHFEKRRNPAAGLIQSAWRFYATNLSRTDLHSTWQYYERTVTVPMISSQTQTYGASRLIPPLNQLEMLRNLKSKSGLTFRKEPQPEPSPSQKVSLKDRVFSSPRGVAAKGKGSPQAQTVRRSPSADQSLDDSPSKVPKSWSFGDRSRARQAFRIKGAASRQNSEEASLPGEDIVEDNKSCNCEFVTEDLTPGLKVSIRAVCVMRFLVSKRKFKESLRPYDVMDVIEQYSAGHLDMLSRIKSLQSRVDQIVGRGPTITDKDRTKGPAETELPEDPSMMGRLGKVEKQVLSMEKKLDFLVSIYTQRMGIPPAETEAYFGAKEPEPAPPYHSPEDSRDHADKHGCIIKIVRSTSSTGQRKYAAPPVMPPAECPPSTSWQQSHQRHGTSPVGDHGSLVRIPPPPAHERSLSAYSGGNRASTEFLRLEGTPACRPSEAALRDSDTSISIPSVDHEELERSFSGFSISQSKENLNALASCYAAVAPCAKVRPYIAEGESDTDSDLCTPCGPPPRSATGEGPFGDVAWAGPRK

[16] = molecular target: T5, Apoptotic protease-activating factor 1 (Homo sapiens, UniProt O14727); experiment: SAR analysis of small molecule Activators of Apaf-1 in a Fluorescent assay.; format: functional; details: read-out: EC50_Mean;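 further: caspase-3 cleavage of fluorogenic Rh110 DEVD substrate downstream of apoptosome activation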
T5 sequence (O14727 whole entry): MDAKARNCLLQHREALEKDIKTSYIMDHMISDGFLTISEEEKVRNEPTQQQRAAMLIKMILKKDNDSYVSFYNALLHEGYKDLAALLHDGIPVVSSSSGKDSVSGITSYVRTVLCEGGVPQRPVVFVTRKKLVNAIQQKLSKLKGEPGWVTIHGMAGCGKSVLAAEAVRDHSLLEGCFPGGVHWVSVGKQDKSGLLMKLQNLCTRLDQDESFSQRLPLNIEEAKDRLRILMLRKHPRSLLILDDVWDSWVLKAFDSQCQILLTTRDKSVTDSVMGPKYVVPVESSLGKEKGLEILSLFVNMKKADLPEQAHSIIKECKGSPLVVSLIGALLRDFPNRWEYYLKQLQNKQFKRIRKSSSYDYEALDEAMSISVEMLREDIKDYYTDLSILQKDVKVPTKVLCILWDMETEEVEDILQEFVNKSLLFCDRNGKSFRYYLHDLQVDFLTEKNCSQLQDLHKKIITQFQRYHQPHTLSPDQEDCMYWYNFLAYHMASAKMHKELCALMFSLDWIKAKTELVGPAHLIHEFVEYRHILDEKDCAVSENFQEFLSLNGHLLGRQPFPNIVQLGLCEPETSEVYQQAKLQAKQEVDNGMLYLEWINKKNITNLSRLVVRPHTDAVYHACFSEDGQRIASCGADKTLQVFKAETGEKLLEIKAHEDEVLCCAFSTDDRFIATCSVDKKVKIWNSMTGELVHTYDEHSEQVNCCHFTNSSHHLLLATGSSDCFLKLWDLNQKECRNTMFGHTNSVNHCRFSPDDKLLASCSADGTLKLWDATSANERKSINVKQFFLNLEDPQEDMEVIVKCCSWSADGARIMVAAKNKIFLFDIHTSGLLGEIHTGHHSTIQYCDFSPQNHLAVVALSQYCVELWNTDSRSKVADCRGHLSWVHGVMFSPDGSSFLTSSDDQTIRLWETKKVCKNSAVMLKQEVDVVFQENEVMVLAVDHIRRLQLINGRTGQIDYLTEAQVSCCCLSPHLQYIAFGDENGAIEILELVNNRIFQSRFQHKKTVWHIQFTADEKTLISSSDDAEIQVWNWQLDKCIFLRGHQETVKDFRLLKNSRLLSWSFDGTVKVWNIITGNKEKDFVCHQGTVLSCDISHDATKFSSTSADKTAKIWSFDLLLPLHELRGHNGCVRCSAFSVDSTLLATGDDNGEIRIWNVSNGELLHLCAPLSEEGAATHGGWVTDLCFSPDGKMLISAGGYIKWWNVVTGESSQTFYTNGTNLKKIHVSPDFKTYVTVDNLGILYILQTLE

Adenosylmethionine-8-amino-7-oxononanoate aminotransferase, sequence (P9WQ81 whole entry): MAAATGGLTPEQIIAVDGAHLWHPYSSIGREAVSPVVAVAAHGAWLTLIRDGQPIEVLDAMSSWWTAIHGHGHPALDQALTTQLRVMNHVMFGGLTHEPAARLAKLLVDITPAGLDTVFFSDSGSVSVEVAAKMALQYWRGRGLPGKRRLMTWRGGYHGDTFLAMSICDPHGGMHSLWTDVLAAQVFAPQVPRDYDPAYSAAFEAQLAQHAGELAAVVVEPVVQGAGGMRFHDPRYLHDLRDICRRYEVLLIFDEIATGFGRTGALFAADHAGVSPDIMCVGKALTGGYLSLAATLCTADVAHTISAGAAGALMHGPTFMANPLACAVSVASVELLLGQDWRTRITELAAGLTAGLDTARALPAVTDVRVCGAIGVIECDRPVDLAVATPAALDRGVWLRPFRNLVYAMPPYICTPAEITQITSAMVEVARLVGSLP

Cc1c2cnn(CC(=O)NCc3ccccn3)c(=O)c2c(C)n1Cc1ccc(Cl)cc1
AC50 [1]: 2.49 µM (active)

C[C@@H]1COC(=O)[C@@H](NC(=O)OCC2c3ccccc3-c3ccccc32)C/C=C\C[C@@H](CC(=O)N(CCO)Cc2ccccc2)C(=O)N1
AC50 [2]: 3.59 µM (active) | IC50 (Protein Wnt-3a): 3.34 µM (active) | AC50 [3]: 1.89 µM (active) | AC50 [4]: > 70 µM (inactive)

N#C/C(=N\Nc1ccc(Cl)cc1)C(N)=S
EC50 (Streptococcus): > 150 µM (not active) | EC50 [5]: > 150 µM (not active) | IC50 [6]: 5.01 µM (active) | AC50 [7]: 7.86 µM (active) | EC50 (Streptokinase A): > 150 µM (not active) | IC50 [8]: 2.04 µM (active)

Cc1nn(-c2ccccc2)c2nc(N)c(C#N)c(-c3ccc(O)c(O)c3)c12
IC50 [9]: 9.34 µM (active) | IC50 (Orexin receptor type 2 [10]): > 50 µM (inactive) | IC50 (CHO-K1): > 66.2 µM (inactive) | IC50 [11]: 36.2 µM (inactive) | IC50 (Orexin receptor type 2 [12]): > 88.8 µM (inactive) | IC50 [13]: > 5.53 µM (active) | CC50 [14]: 17.4 µM (active)

CCC(CC)C(=O)N(CCc1ccc(OC)cc1)Cc1nc(O)c2ccccc2n1
IC50 (H9c2): > 79 µM (inactive) | IC50 [15]: 12.4 µM (active)

Cc1ccc(C(C)N=C(S)NC2CCCCC2)cc1C (stereo unspecified)
IC50 [6]: 8 µM (active) | IC50 [8]: 3.36 µM (active)

O=C(NC(Cc1c[nH]c2ccccc12)C(=O)N/N=C/c1ccc(Cl)cc1)c1cccs1 (stereo unspecified)
IC50 (cells): 10.9 µM (active) | IC50 [9]: 3.28 µM (active) | IC50 (Orexin receptor type 2 [10]): > 50 µM (inactive) | IC50 (CHO-K1): > 66.2 µM (inactive) | IC50 [11]: > 49.8 µM (inactive) | IC50 (Orexin receptor type 2 [12]): 24 µM (inactive) | IC50 [13]: 8.68 µM (active) | CC50 [14]: 14.7 µM (active)

CC(=O)c1ccc(N2C(=O)CC3(CC(c4ccc(Cl)cc4)=NO3)C2=O)cc1 (stereo unspecified)
EC50 [16]: > 100 µM (inactive)
